# Measurements: publication PMC9981719, “A novel designed membrane-active peptide for the control of foodborne Salmonella enterica serovar Typhimurium” (Scientific Reports, 2023)
# Where no end group is shown, it is not given here.
# Experiments:
# [1] = test system: Staphylococcus aureus ATCC 25923; assay type: cell-based
# Text: (§1) All tests were done in triplicate.
# [2] = test system: Acinetobactero baumanii MT strain; assay type: cell-based
# Text: as §1
# 4,5,12:i:- H2-042 [3] = settings: checkerboard, TSB, 37 °C, 24 h
# Method: (§2) Effects of the combination of A11 with nisin against S. Typhimurium ATCC 13311 and 10 drug-resistant S. Typhimurium and S. enterica isolates were determined by the checkerboard titration method. Briefly, 10 drug-resistant S. Typhimurium were grown to a concentration of 1 × 10^7 CFU/ml in fresh TSB. Aliquots (25 µl) of nisin (final concentrations of 0.5–16 mg/ml) and A11 (final concentrations of 0.98–250 µg/ml) were added into 96-well plates containing 50 µl of bacterial suspension and cultured at 37 °C. […] ICA is the concentration required to produce the same effect as compound A when used alone, ICB is the concentration required to produce the same effect as compound B when used alone. The CI results were interpreted as follows: a CI of less than 1 indicates synergistic effect, a CI equal to 1 indicates additive effect, and a CI of more than 1 indicates antagonistic effect.
# 4,5,12:i:- H2-039 [4] = settings: checkerboard, TSB, 37 °C, 24 h
# Method: as §2
# S. Typhimurium H1-011 [5] = settings: checkerboard, TSB, 37 °C, 24 h
# Method: as §2
# S. Typhimurium H1-015 [6] = settings: checkerboard, TSB, 37 °C, 24 h
# Method: as §2
# S. Typhimurium ATCC13311 = settings: checkerboard, TSB, 37 °C, 24 h
# Method: as §2
# 4,5,12:i:- H1-100 [7] = settings: checkerboard, TSB, 37 °C, 24 h
# Method: as §2
# S. Typhimurium H1-006 = settings: checkerboard, TSB, 37 °C, 24 h
# Method: as §2
# 4,5,12:i:- H2-089 [8] = settings: checkerboard, TSB, 37 °C, 24 h
# Method: as §2
# S. Typhimurium H1-001 [9] = settings: checkerboard, TSB, 37 °C, 24 h
# Method: as §2
# S. Typhimurium H1-041 = settings: checkerboard, TSB, 37 °C, 24 h
# Method: as §2
# S. Typhimurium H1-062 = settings: checkerboard, TSB, 37 °C, 24 h
# Method: as §2
# [10] = test system: S. Typhimurium ATCC 13311; assay: Effect of pH on MIC; assay type: cell-based, Salmonella enterica serovar Typhimurium
# Method: The pH of peptide solutions was adjusted (pH 3, 5, 7, 9 and 11) using 1 M acetic acid (CH3COOH) and 1 M sodium hydroxide (NaOH). Solutions adjusted to the different pHs without addition of A11 were used as controls. Subsequently, twofold serially diluted solutions (0.98–250 μg/ml) of A11 peptide were prepared with different pHs of peptide solution and incubated at 37 °C for 60 min, transferred to 1 × 10^7 CFU/ml of S. Typhimurium ATCC 13311 suspensions, then incubated at 37 °C with continuous shaking. After 24 h, MIC values were determined.
# S. Typhimurium H1-011 [11] = assay type: cell-based, Salmonella enterica serovar Typhimurium; settings: strain H1-011
# Text: as §1
# S. Typhimurium H1-015 [12] = assay type: cell-based, Salmonella enterica serovar Typhimurium; settings: strain H1-015
# Text: as §1
# S. Typhimurium H1-001 [13] = assay type: cell-based, Salmonella enterica serovar Typhimurium; settings: strain H1-001
# Text: as §1
# [14] = test system: Salmonella Typhimurium ATCC 13311; assay type: cell-based, Salmonella enterica serovar Typhimurium; settings: ATCC 13311, 18 h
# Text: as §1
# 4,5,12:i:- H2-042 [15] = assay type: cell-based, Salmonella enterica 4,5,12:i:-; settings: strain H2-042
# Text: as §1
# 4,5,12:i:- H2-039 [16] = assay type: cell-based, Salmonella enterica 4,5,12:i:-; settings: strain H2-039
# Text: as §1
# 4,5,12:i:- H1-100 [17] = assay type: cell-based, Salmonella enterica 4,5,12:i:-; settings: strain H1-100
# Text: as §1
# 4,5,12:i:- H2-049 = assay type: cell-based, Salmonella enterica 4,5,12:i:-; settings: strain H2-049
# Text: as §1
# 4,5,12:i:- H2-089 [18] = assay type: cell-based, Salmonella enterica 4,5,12:i:-; settings: strain H2-089
# Text: as §1
# 4,5,12:i:- H1-024 = assay type: cell-based, Salmonella enterica 4,5,12:i:-; settings: strain H1-024
# Text: as §1
# 4,5,12:i:- H2-071 = assay type: cell-based, Salmonella enterica 4,5,12:i:-; settings: strain H2-071
# Text: as §1
# 4,5,12:i:- H2-067 = assay type: cell-based, Salmonella enterica 4,5,12:i:-; settings: strain H2-067
# Text: as §1
# 4,5,12:i:- H2-010 = assay type: cell-based, Salmonella enterica 4,5,12:i:-; settings: strain H2-010
# Text: as §1
# 4,5,12:i:- H2-047 = assay type: cell-based, Salmonella enterica 4,5,12:i:-; settings: strain H2-047
# Text: as §1
substance,measurement,setting,value
WVKKVARKVVKIGRKVAR-NH2 [A11],MBC,"[1]; ATCC 25923, 18 h",> 250 (> 250) µg/ml
same,MIC,"[1]; ATCC 25923, 24 h",> 250 (> 250) µg/ml
same,MBC,[2]; 18 h,31.25 µg/mL
same,MIC,[2]; 24 h,15.63 µg/mL
same,MIC (alone),"4,5,12:i:- H2-042 [3]",62.5 µg/mL
same,MIC (alone),"4,5,12:i:- H2-039 [4]",62.5 µg/mL
same,MIC (alone),S. Typhimurium H1-011 [5],62.5 µg/mL
same,MIC (alone),S. Typhimurium H1-015 [6],62.5 µg/mL
same,MIC (alone),S. Typhimurium ATCC13311,15.63 µg/mL
same,MIC (alone),"4,5,12:i:- H1-100 [7]",62.5 µg/mL
same,MIC (alone),S. Typhimurium H1-006,125 µg/mL
same,MIC (alone),"4,5,12:i:- H2-089 [8]",62.5 µg/mL
same,MIC (alone),S. Typhimurium H1-001 [9],62.5 µg/mL
same,MIC (alone),S. Typhimurium H1-041,125 µg/mL
same,MIC (alone),S. Typhimurium H1-062,125 µg/mL
same,MIC at pH 3,"[10]; peptide solution adjusted to pH 3, incubated 37 °C 60 min, then 24 h with 1 × 10^7 CFU/ml",125 µg/ml
same,MIC at pH 5,"[10]; peptide solution adjusted to pH 5, incubated 37 °C 60 min, then 24 h with bacteria",31.25 µg/ml
same,MIC at pH 7,"[10]; peptide solution adjusted to pH 7, incubated 37 °C 60 min, then 24 h with bacteria",15.63 µg/ml
same,MIC at pH 9,"[10]; peptide solution adjusted to pH 9, incubated 37 °C 60 min, then 24 h with bacteria",15.63 µg/ml
same,MIC at pH 11,"[10]; peptide solution adjusted to pH 11, incubated 37 °C 60 min, then 24 h with bacteria",31.25 µg/ml
same,MBC,S. Typhimurium H1-011 [11],62.5 (62.5) µg/ml
same,MIC,S. Typhimurium H1-011 [11],62.5 (62.5) µg/ml
same,MBC,S. Typhimurium H1-015 [12],62.5 (62.5) µg/ml
same,MIC,S. Typhimurium H1-015 [12],62.5 (62.5) µg/ml
same,MBC,S. Typhimurium H1-001 [13],125 µg/mL
same,MIC,S. Typhimurium H1-001 [13],62.5 µg/mL
same,"MIC, Control",[14],15.63 µg/mL
same,MBC,"4,5,12:i:- H2-042 [15]",125 µg/mL
same,MIC,"4,5,12:i:- H2-042 [15]",62.5 µg/mL
same,MBC,"4,5,12:i:- H2-039 [16]",125 µg/mL
same,MIC,"4,5,12:i:- H2-039 [16]",62.5 µg/mL
same,MBC,"4,5,12:i:- H1-100 [17]",62.5 (62.5) µg/ml
same,MIC,"4,5,12:i:- H1-100 [17]",62.5 (62.5) µg/ml
same,MBC,"4,5,12:i:- H2-049",125 µg/mL
same,MIC,"4,5,12:i:- H2-049",62.5 µg/mL
same,MBC,"4,5,12:i:- H2-089 [18]",125 µg/mL
same,MIC,"4,5,12:i:- H2-089 [18]",62.5 µg/mL
same,MBC,"4,5,12:i:- H1-024",62.5 (62.5) µg/ml
same,MIC,"4,5,12:i:- H1-024",62.5 (62.5) µg/ml
same,MBC,"4,5,12:i:- H2-071",125 (125) µg/ml
same,MIC,"4,5,12:i:- H2-071",125 (125) µg/ml
same,MBC,"4,5,12:i:- H2-067",62.5 (62.5) µg/ml
same,MIC,"4,5,12:i:- H2-067",62.5 (62.5) µg/ml
same,MBC,"4,5,12:i:- H2-010",62.5 (62.5) µg/ml
same,MIC,"4,5,12:i:- H2-010",62.5 (62.5) µg/ml
same,MBC,"4,5,12:i:- H2-047",125 µg/mL
same,MIC,"4,5,12:i:- H2-047",62.5 µg/mL
